From patent US9555038B2, “Heterocycle-substituted tetracyclic compounds and methods of use thereof for the treatment of viral diseases” (Merck Sharp & Dohme Corp., priority 2013, dated 2017) come the findings set out here.

Like-named read-outs stand apart in the source and are kept apart here.

For one experiment, the system named is HCV replicon 1A. In words: Cell-based HCV Replicon Assay A, replicon 1A. In short, it runs like this:
(§1)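 Replicon cells seeded at 2000 cells/well with compound, 10 serial dilutions starting at 333.3 nM to 1.667 nM, 0.5% DMSO, 5% FBS, harvested on day 3. Replicon RNA measured by multiplex TaqMan RT-PCR with cyclophilin as endogenous control, quantified from standard curves of Ct vs log ng RNA.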
In general terms: In antiviral work, replicon cells carry a viral genome segment that copies itself.

The test system of a further experiment is HCV replicon 1AY93H. Description: Cell-based HCV Replicon Assay A, replicon 1AY93H. The method, boiled down:
as §1

The next experiment relates to HCV replicon 2B. In words: Cell-based HCV Replicon Assay A, replicon 2B. The method, boiled down:
as §1

In a further experiment the test system is HCV replicon 1AQ30D. Description: Cell-based HCV Replicon Assay B, replicon 1AQ30D. The method, boiled down: (§2)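 Replicon cells seeded in 5% FBS; compounds added 24 h later, then 3 days' incubation. Replicon RNA quantified by real-time RT-PCR with genotype-specific primers/probes (NS5B amplicon for 1b). EC50 = concentration raising CT by 1 over projected baseline.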

Another experiment deals with HCV replicon 1B. Description: Cell-based HCV Replicon Assay B, replicon 1B. In short, it runs like this: as §2
The mark [1] stands for this setting: read-out: 1A Y93H IC50, replicon 1AY93H.
[2] abbreviates: read-out: 1A Q30D IC50, replicon 1AQ30D.
Setting [3] is: Hepatitis C virus, read-out: 1A Q30D IC50 (nM), replicon 1AQ30D.
Where [4] appears, read: replicon 1AY93H, read-out: 1A Y93H IC50.
Where [5] appears, read: replicon 1AQ30D, read-out: 1A Q30D IC50.

As for `COC(=O)N[C@H](C(=O)N1CCC[C@H]1c1ncc(-c2cc(F)c3c(c2)OC(c2cnc(C4CC4)s2)n2c-3cc3cc(-c4cnc([C@@H]5C[C@H]6C[C@H]6N5C(=O)[C@@H](NC(=O)OC)C(C)C)[nH]4)ccc32)[nH]1)C(C)C` (single isomer, unassigned) [Compound 300], the IC50 (in general, the concentration at which inhibition is half-maximal) with HCV replicon 1A is 3 pM; with HCV replicon 1AY93H (setting [1]), 0.0041 nM; in the experiment on HCV replicon 2B (read-out: 2B IC50, replicon 2B) it was 0.011 nM; in the experiment on HCV replicon 1AQ30D (setting [2]) it was 0.066 nM; in the experiment on HCV replicon 1B (Hepatitis C virus) it was 3 pM.
Take `COC(=O)N[C@H](C(=O)N1CCC[C@H]1c1ncc(-c2cc(F)c3c(c2)OC(c2cnc(C4CC4)s2)n2c-3cc3cc(-c4cnc([C@@H]5C[C@H]6C[C@H]6N5C(=O)[C@@H](NC(=O)OC)C(C)C)[nH]4)ccc32)[nH]1)C(C)C` (single isomer, unassigned) [Compound 301]: the 50% inhibitory concentration (IC50) in the experiment with HCV replicon 1A amounted to 1.4 pM; with HCV replicon 1AY93H (setting [1]), 0.22 nM; in the experiment with HCV replicon 2B (read-out: 2B IC50, replicon 2B) it was 0.335 nM; with HCV replicon 1AQ30D (setting [2]), 2.12 nM; in the experiment with HCV replicon 1B, 4 pM.
Consider `COC(=O)N[C@H](C(=O)N1CCC[C@H]1c1ncc(-c2cc(F)c3c(c2)OC(c2cnc(C(C)(C)C)s2)n2c-3cc3cc(-c4cnc([C@@H]5CCCN5C(=O)[C@@H](NC(=O)OC)C(C)C)[nH]4)ccc32)[nH]1)C(C)C` (single isomer, unassigned) [Compound 302], for which the half-inhibitory concentration (IC50) in the experiment on HCV replicon 1A (Hepatitis C virus) was determined as 2.9 pM; in the experiment with HCV replicon 1AY93H (setting [1]), 0.0071 nM; in the experiment with HCV replicon 2B (read-out: 2B IC50, replicon 2B), 0.077 nM; with HCV replicon 1AQ30D (setting [3]), 0.168 nM; in the experiment with HCV replicon 1B, 1 pM.
With `COC(=O)NC(C(=O)N1CCC[C@H]1c1ncc(-c2ccc3c(c2)cc2n3C(c3cnc(C4CC4)s3)Oc3cc(-c4cnc([C@@H]5CCCN5C(=O)[C@@H](NC(=O)OC)C(C)C)[nH]4)cc(F)c3-2)[nH]1)C1C[C@@H](C)O[C@H](C)C1` (single isomer, unassigned) [Compound 304], the concentration for half-maximal inhibition (IC50) is 2 pM in the experiment on HCV replicon 1A (Hepatitis C virus); 0.123 nM in the experiment on HCV replicon 1AY93H (setting [1]); 0.048 nM with HCV replicon 2B (read-out: 2B IC50, replicon 2B); 0.954 nM in the experiment on HCV replicon 1AQ30D (setting [2]); 3 pM in the experiment on HCV replicon 1B (Hepatitis C virus).
Regarding `COC(=O)NC(C(=O)N1CCC[C@H]1c1ncc(-c2ccc3c(c2)cc2n3C(c3cnc(C4CC4)s3)Oc3cc(-c4cnc([C@@H]5CCCN5C(=O)[C@@H](NC(=O)OC)C(C)C)[nH]4)cc(F)c3-2)[nH]1)C1C[C@@H](C)O[C@@H](C)C1` (single isomer, unassigned) [Compound 307], the concentration for half-maximal inhibition (IC50) in the experiment with HCV replicon 1A amounted to 4.2 pM; in the experiment with HCV replicon 1AY93H (setting [1]), 0.0083 nM; in the experiment with HCV replicon 2B (read-out: 2B IC50, replicon 2B), 0.006 nM; in the experiment with HCV replicon 1AQ30D (setting [3]), 0.047 nM; in the experiment on HCV replicon 1B (Hepatitis C virus), 5 pM.
Take `COC(=O)NC(C(=O)N1CCC[C@H]1c1ncc(-c2ccc3c(c2)cc2n3C(c3cnc(C4CC4)s3)Oc3cc(-c4cnc([C@@H]5CCCN5C(=O)[C@@H](NC(=O)OC)C(C)C)[nH]4)cc(F)c3-2)[nH]1)C1CCOC(C)(C)C1` (single isomer, unassigned) [Compound 308]: the half-inhibitory concentration (IC50) in the experiment with HCV replicon 1A was found to be 4.1 pM; in the experiment on HCV replicon 1AY93H (setting [1]), 0.0757 nM; with HCV replicon 2B (read-out: 2B IC50, replicon 2B), 0.047 nM; in the experiment on HCV replicon 1AQ30D (setting [2]) it was 0.496 nM; in the experiment on HCV replicon 1B (Hepatitis C virus), 3 pM.
Regarding `COC(=O)NC(C(=O)N1CCC[C@H]1c1ncc(-c2ccc3c(c2)cc2n3C(c3cnc(C4CC4)s3)Oc3cc(-c4cnc([C@@H]5CCCN5C(=O)[C@@H](NC(=O)OC)C(C)C)[nH]4)cc(F)c3-2)[nH]1)C1CCOC(C)(C)C1` (single isomer, unassigned) [Compound 309], the IC50 in the experiment on HCV replicon 1A worked out at 1.8 pM; with HCV replicon 1AY93H (setting [1]), 0.0218 nM; in the experiment with HCV replicon 2B (read-out: 2B IC50, replicon 2B), 0.003 nM; in the experiment on HCV replicon 1AQ30D (setting [2]) it was 0.047 nM; in the experiment with HCV replicon 1B it was 6 pM.
On to `COC(=O)NC(C(=O)N1[C@@H]2C[C@@H]2C[C@H]1c1ncc(-c2ccc3c(c2)cc2n3C(c3cnc(C4CC4)s3)Oc3cc(-c4cnc([C@@H]5CCCN5C(=O)[C@@H](NC(=O)OC)C(C)C)[nH]4)cc(F)c3-2)[nH]1)C1C[C@@H](C)O[C@@H](C)C1` (single isomer, unassigned) [Compound 310], for which the IC50 with HCV replicon 1A (Hepatitis C virus) worked out at 2.6 pM; in the experiment with HCV replicon 1AY93H (setting [1]) it was 0.0954 nM; in the experiment with HCV replicon 2B (read-out: 2B IC50, replicon 2B) it was 0.12 nM; in the experiment with HCV replicon 1AQ30D (setting [2]), 0.806 nM; with HCV replicon 1B (Hepatitis C virus), 3 pM.
In the case of `COC(=O)NC(C(=O)N1[C@@H]2C[C@@H]2C[C@H]1c1ncc(-c2ccc3c(c2)cc2n3C(c3cnc(C4CC4)s3)Oc3cc(-c4cnc([C@@H]5CCCN5C(=O)[C@@H](NC(=O)OC)C(C)C)[nH]4)cc(F)c3-2)[nH]1)C1C[C@@H](C)O[C@@H](C)C1` (single isomer, unassigned) [Compound 311], the 50% inhibitory concentration (IC50) in the experiment with HCV replicon 1A amounted to 2 pM; in the experiment on HCV replicon 1AY93H (setting [1]), 0.0019 nM; in the experiment with HCV replicon 2B (read-out: 2B IC50, replicon 2B), 0.003 nM; in the experiment on HCV replicon 1AQ30D (setting [2]), 0.011 nM; in the experiment on HCV replicon 1B, 2 pM.
Take `COC(=O)NC(C(=O)N1CCCC1c1ncc(-c2cc(F)c3c(c2)OC(c2cnc(C4CCCC4)s2)n2c-3cc3cc(-c4cnc(C5CC6CC6N5C(=O)C(NC(=O)OC)C(C)C)[nH]4)ccc32)[nH]1)C(C)C` (single isomer, unassigned) [Compound 319]: the IC50 was found to be 2.5 pM in the experiment on HCV replicon 1A; 0.0029 nM with HCV replicon 1AY93H (setting [4]); 0.017 nM with HCV replicon 2B (replicon 2B, read-out: 2B IC50); 0.051 nM with HCV replicon 1AQ30D (setting [5]); 3 pM in the experiment with HCV replicon 1B.
The corresponding values for `COC(=O)NC(C(=O)N1CCCC1c1ncc(-c2cc(F)c3c(c2)OC(c2cnc(C4CCCC4)s2)n2c-3cc3cc(-c4cnc(C5CC6CC6N5C(=O)C(NC(=O)OC)C(C)C)[nH]4)ccc32)[nH]1)C(C)C` (single isomer, unassigned) [Compound 320] are 1.7 pM, 0.036 nM, 0.203 nM, 0.59 nM and 3 pM.
Turning to `COC(=O)NC(C(=O)N1[C@@H]2C[C@@H]2C[C@H]1c1ncc(-c2ccc3c(c2)cc2n3C(c3cnc(C4CCCC4)s3)Oc3cc(-c4cnc([C@@H]5CCCN5C(=O)[C@@H](NC(=O)OC)C(C)C)[nH]4)cc(F)c3-2)[nH]1)C1CCOC(C)(C)C1` (single isomer, unassigned) [Compound 321], the IC50 with HCV replicon 1A (Hepatitis C virus) amounted to 2.9 pM; in the experiment on HCV replicon 1AY93H (setting [1]) it was 0.0019 nM; in the experiment on HCV replicon 2B (read-out: 2B IC50, replicon 2B), 0.004 nM; in the experiment with HCV replicon 1AQ30D (setting [2]), 0.007 nM; in the experiment on HCV replicon 1B (Hepatitis C virus), 3 pM.
On to `COC(=O)NC(C(=O)N1[C@@H]2C[C@@H]2C[C@H]1c1ncc(-c2ccc3c(c2)cc2n3C(c3cnc(C4CCCC4)s3)Oc3cc(-c4cnc([C@@H]5CCCN5C(=O)[C@@H](NC(=O)OC)C(C)C)[nH]4)cc(F)c3-2)[nH]1)C1CCOC(C)(C)C1` (single isomer, unassigned) [Compound 322], for which the IC50 with HCV replicon 1A was determined as 2.7 pM; with HCV replicon 1AY93H (setting [1]) it was 0.0512 nM; in the experiment with HCV replicon 2B (read-out: 2B IC50, replicon 2B), 0.058 nM; in the experiment on HCV replicon 1AQ30D (setting [2]), 0.324 nM; with HCV replicon 1B, 4 pM.
Consider `COC(=O)N[C@H](C(=O)N1CCC[C@H]1c1ncc(-c2cc(F)c3c(c2)OC(c2cnc(-c4ccncc4)s2)n2c-3cc3cc(-c4cnc([C@@H]5CCCN5C(=O)[C@@H](NC(=O)OC)C(C)C)[nH]4)ccc32)[nH]1)C(C)C` (single isomer, unassigned) [Compound 409], for which the IC50 in the experiment on HCV replicon 1A (Hepatitis C virus) was determined as 10.8 pM; with HCV replicon 1AY93H (Hepatitis C virus, read-out: 1A Y93H IC50 (nM), replicon 1AY93H), 0.577 nM; in the experiment with HCV replicon 2B (Hepatitis C virus, read-out: 2B IC50 (nM), replicon 2B), 1.28 nM; with HCV replicon 1AQ30D (setting [3]), 5.1 nM; in the experiment on HCV replicon 1B (Hepatitis C virus), 7 pM.
For `COC(=O)NC(C(=O)N1[C@@H]2C[C@@H]2C[C@H]1c1ncc(-c2ccc3c(c2)cc2n3C(c3cnc(CC(C)C)s3)Oc3cc(-c4cnc([C@@H]5CCCN5C(=O)[C@@H](NC(=O)OC)C(C)C)[nH]4)cc(F)c3-2)[nH]1)C1CCOC(C)(C)C1` (single isomer, unassigned) [Compound 437], the IC50 was found to be 2.2 pM with HCV replicon 1A; 0.176 nM in the experiment with HCV replicon 1AY93H (setting [4]); 0.21 nM in the experiment on HCV replicon 2B (replicon 2B, read-out: 2B IC50); 0.283 nM in the experiment on HCV replicon 1AQ30D (setting [5]); 3.1 pM in the experiment on HCV replicon 1B.
The corresponding values for `COC(=O)NC(C(=O)N1[C@@H]2C[C@@H]2C[C@H]1c1ncc(-c2ccc3c(c2)cc2n3C(c3cnc(CC(C)C)s3)Oc3cc(-c4cnc([C@@H]5CCCN5C(=O)[C@@H](NC(=O)OC)C(C)C)[nH]4)cc(F)c3-2)[nH]1)C1CCOC(C)(C)C1` (single isomer, unassigned) [Compound 438] are 3.6 pM, 0.004 nM, 0.006 nM, 0.03 nM and 3.7 pM.
For `COC(=O)NC(C(=O)N1[C@@H]2C[C@@H]2C[C@H]1c1ncc(-c2ccc3c(c2)cc2n3C(c3cnc(CC(C)C)s3)Oc3cc(-c4cnc([C@@H]5CCCN5C(=O)[C@@H](NC(=O)OC)C(C)C)[nH]4)cc(F)c3-2)[nH]1)C1CCOC(C)(C)C1` (single isomer, unassigned) [Compound 439] the same measures were 2.7 pM, 0.004 nM, 0.006 nM, 0.018 nM and 2.1 pM.
In the case of `COC(=O)NC(C(=O)N1[C@@H]2C[C@@H]2C[C@H]1c1ncc(-c2ccc3c(c2)cc2n3C(c3cnc(CC(C)C)s3)Oc3cc(-c4cnc([C@@H]5CCCN5C(=O)[C@@H](NC(=O)OC)C(C)C)[nH]4)cc(F)c3-2)[nH]1)C1C[C@@H](C)O[C@@H](C)C1` (single isomer, unassigned) [Compound 440], the IC50 with HCV replicon 1A (Hepatitis C virus) worked out at 2.3 pM; in the experiment with HCV replicon 1AY93H (setting [1]), 0.146 nM; with HCV replicon 2B (read-out: 2B IC50, replicon 2B), 0.32 nM; with HCV replicon 1AQ30D (setting [2]), 0.967 nM; with HCV replicon 1B (Hepatitis C virus) it was 3.6 pM.
